Test results reported in patent US20130004516A1, “DRUG FOR INFLAMMATORY BOWEL DISEASE” (DAINIPPON SUMITOMO PHARMA CO., LTD., priority 2010, published 2013).

System: mouse model of relapse-remitting type ulcerative colitis
Experiment: Ulcer score of the large intestine in the mouse model of colitis induced by 1% DSS (Example 1)
Type: in vivo
Conditions: day of completion; score 1 = ulcer of 1 mm^2 or larger; antibodies 0.5 mg/mouse intraperitoneally once; sulfasalazine 200 mg/kg orally once a day
Description: An aqueous solution of dextran sulfate (DSS) was administered to a mouse to induce relapse-remitting type ulcerative colitis. To this mouse model of relapse-remitting type ulcerative colitis, an anti-CD81 antibody was administered once and a relapse (recurrence)-inhibitory effect of single-dose administration of an anti-CD81 antibody on ulcerative colitis was examined by comparing with single-dose administration of an anti-TNF-α antibody and multiple-dose administration of sulfasalazine, both of which are the existing therapeutic agents.
Dextran sulfate (the product of TdB consultancy AB, an average molecular weight of 47,000) was dissolved in drinking water to prepare a 1% aqueous solution. […]
Four-week-old mice (BALB/cAnNCrj, male, the product of Charles River Laboratories Japan, Inc.) were purchased, and the mice in which no abnormality was found after six days of quarantine rearing were measured for body weight and then divided into six groups, where one group contained 10 mice. […]
On the day of completion of the experiment, 0.1 ml of a 2.5% brilliant blue 6B solution was administered to all groups of mice via tail vein. […] Subsequently, the large intestine was thoroughly washed with an ethanol solution and the size of ulcer was measured. […]

SMILES: O=C(O)c1cc(/N=N/c2ccc(S(=O)(=O)Nc3ccccn3)cc2)ccc1O [Sulfasalazine, sulfasalazine]
- Ulcer score: 0.1
